These results are taken from US20230210819A1, “USE OF BENZISOSELAZOLE DERIVATIVE FOR ANTI-CORONAVIRUS AND CONTROL OF INTERSTITIAL LUNG DISEASE (ILD) RELATED TO CORONAVIRUS” (SHANGHAI YUANXI MEDICINE CORP., priority 2020, published 2023).

One experiment deals with 2019-nCoV 3CLpro protein (Severe acute respiratory syndrome coronavirus 2, UniProt P0DTD1). The experiment can be described thus: 2019-nCoV 3CLpro protein activity, fluorescence method with fluorescent polypeptide substrate. Type of experiment: biochemical.
Conditions: not given
For orientation: IC50 means the concentration at which inhibition is half-maximal. `O=c1c2ccccc2[se]n1CCCn1[se]c2ccccc2c1=O` had an IC50 of 115 nM.

Compound `O=c1c2ccccc2[se]n1CCCCCn1[se]c2ccccc2c1=O` showed an IC50 of 86.2 nM.

The compound `O=c1c2ccccc2[se]n1CCCCCCCCCCCCn1[se]c2ccccc2c1=O` had an IC50 of 35.6 nM.

`O=c1c2cc(O)ccc2[se]n1CCCCn1[se]c2ccc(O)cc2c1=O` gave an IC50 of 41.5 nM.

As to `O=c1c2ccccc2[se]n1-c1ccc(S(=O)(=O)n2[se]c3ccccc3c2=O)cc1`, the midpoint of inhibition, the IC50, lay at 1240 nM.

On to `Cc1[nH]c(/C=C2\C(=O)Nc3c(F)cccc32)c(C)c1C(=O)OCCn1[se]c2ccccc2c1=O`, for which the IC50 was 1640 nM.

`O=c1c2ccccc2[se]n1CCSSCCn1[se]c2ccccc2c1=O`: inhibition was half-maximal at 1460 nM (IC50).

Regarding `O=c1c2ccccc2[se]n1CCCCn1[se]c2ccccc2c1=O` [drawing 188], the IC50 is 111 nM.

The same experiment, now with this note: read-out: IC50 (converted).
As to `O=c1c2ccccc2[se]n1CCn1[se]c2ccccc2c1=O`, the half-maximal inhibitory concentration (IC50) was 1230 nM.

The subject of the next experiment is bleomycin-induced mouse lung disease model. The experiment can be described thus: Lung and spleen coefficients, 24-h modeling. The following applies: 90 mg/kg, effect better than that of Dex. The class given is in vivo, C57 mice. As to the method:
Animals of 24-h modeling were randomly divided into 5 groups according to the table below, 3 animals per control group and 5 animals per test group.
Drug administration began 24 h or 7 d after modeling. […] The day of the first administration was counted as D1, the next day as D2, and so forth. The normal groups and Model groups were given 200 µL of normal saline daily by gavage administration.
Method: after being euthanized, the animals were dissected, and the heart, liver, spleen, lung and kidney were weighed.
In this experiment, 105 C57 mice were randomly selected and subjected to organ drip administration of a single dose of bleomycin at 2.5 mg/kg for 24 h or 7 d for induction. After 7 days of induction, 3 model mice were randomly selected and dissected to determine whether the modeling was successful. After modeling, the survival of the mice was recorded. The living states of the mice were observed and their body weight was measured at a fixed time.
A normal control group comprised 3 mice.
As for `O=c1c2ccccc2[se]n1CCCCn1[se]c2ccccc2c1=O` [BS1801], the “Effect on lung coefficient (in words)” value was “significantly reduce increases in the lung coefficient”.
